Experimental data as given in US8536202B2, “Triazole-substituted anthranilamides as pesticides” (Bayer Cropscience AG, priority 2010, dated 2013).
Read-outs that look alike come from different tables or passages of the source.

How the values were obtained:
[1] = log P determination by HPLC on reversed-phase columns (EEC Directive 79/831 Annex V.A8); format: physicochemical; conditions: pH 2.7
Method in brief: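 log P from reversed-phase LC-MS retention at pH 2.7, 0.1% formic acid water/acetonitrile gradient 10–95% acetonitrile. Calibrated against C3–C16 unbranched alkan-2-ones, interpolating linearly between adjacent alkanones.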

[2] = test system: larvae of the mustard beetle (Phaedon cochleariae); assay: Phaedon test (PHAECO spray treatment); format: in vivo; conditions: 168 h, read-out: activity in %
Method in brief: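 Compound dissolved in acetone/dimethylformamide with alkylaryl polyglycol ether emulsifier, then diluted with emulsifier-containing water to test concentration for spray treatment of Phaedon cochleariae larvae. Activity scored after 7 days as % larvae killed (100% = all dead, 0% = none).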

[3] = test system: caterpillars of the armyworm (Spodoptera frugiperda); assay: Spodoptera frugiperda test (SPODFR spray treatment); format: in vivo; conditions: 168 h; for pest or weed control at 100 g/ha: read-out: activity in %
Method in brief: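 Maize leaf discs sprayed with compound diluted in emulsifier-containing water (acetone/DMF solvent, alkylaryl polyglycol ether emulsifier), dried, then infested with armyworm caterpillars. Kill scored after 7 days as % mortality, 100% = all caterpillars dead, 0% = none.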

[4] = test system: green peach aphid (Myzus persicae); assay: Myzus test (MYZUPE spray treatment), Use Example 4; format: in vivo; conditions: 144 h, 100 g/ha, after 6 days, read-out: activity in %
Experimental: Solvents: 78 parts by weight of acetone • • 1.5 parts by weight of dimethylformamide
Emulsifier: 0.5 part by weight of alkylaryl polyglycol ether
An appropriate preparation of active compound is prepared by mixing 1 part by weight of active compound with the stated amounts of solvents and emulsifier and diluting the concentrate with emulsifier-containing water to the desired concentration.
Leaf discs of Chinese cabbage (Brassica pekinensis) infested by all stages of the green peach aphid (Myzus persicae) are sprayed with a preparation of active compound at the desired concentration.
After 6 days, the activity in % is ascertained. Here, 100% means that all of the aphids have been killed; 0% means that no aphids have been killed.

[5] = reversed-phase C18 HPLC column, HPLC on reversed-phase columns (C 18), EEC Directive 79/831 Annex V.A8, read-out: logP
[6] = HPLC on reversed-phase columns (C 18), EEC Directive 79/831 Annex V.A8, read-out: logP

Structure (SMILES)	chromatographic logP [1]	pest or weed control at 100 g/ha ([2]; 100 g/ha, after 7 days) [%]	pest or weed control at 100 g/ha ([3]; 100 g/ha, after 7 days) [%]	further results
CNC(=O)c1cc(C#N)cc(C)c1NC(=O)c1cc(Cn2cc(C(F)(F)F)nn2)nn1-c1ncccc1Cl [Example 177]	2.28	100	100	pest or weed control at 100 g/ha [4]: 100%
Cc1cc(C#N)cc(C(N)=O)c1NC(=O)c1cc(Cn2nc(C(F)(F)F)c(C(F)(F)F)n2)nn1-c1ncccc1Cl [Example 396]	3.21	100	100	pest or weed control at 100 g/ha [4]: 90%
Cc1cc(C#N)cc(C(=O)NC2CCC2)c1NC(=O)c1cc(Cn2ncc(C(F)(F)F)n2)nn1-c1ncccc1Cl [Example 131]	3.23	100	100	pest or weed control at 100 g/ha [4]: 90%
Cc1cc(C#N)cc(C(=O)NC(C)C2CC2)c1NC(=O)c1cc(Cn2ncc(C(F)(F)F)n2)nn1-c1ncccc1Cl (centres unmarked) [Example 125]	3.39	100	100	pest or weed control at 100 g/ha [4]: 100%
NC(=O)c1cc(Cl)cc(Cl)c1NC(=O)c1cc(Cn2cc(C(F)(F)F)nn2)nn1-c1ncccc1Cl [Example 203]	2.43	100	100	pest or weed control at 100 g/ha [4]: 100%
Cc1cc(C#N)cc(C(=O)NC(C)C)c1NC(=O)c1cc(Cn2cc(C(F)(F)F)nn2)nn1-c1ncccc1Cl [Example 181]	2.67	–	100	pest or weed control at 100 g/ha [4]: 90%
Cc1cc(I)cc(C(=O)NC(C)C2CC2)c1NC(=O)c1cc(Cn2nc(C(F)(F)F)c(C(F)(F)F)n2)nn1-c1ncccc1Cl (centres unmarked) [Example 391]	4.76	100	100	–
O=C(NC1CC1)c1cc(Cl)cc(Cl)c1NC(=O)c1cc(Cn2ncc(C(F)(C(F)(F)F)C(F)(F)F)n2)nn1-c1ncccc1Cl [Example 280]	3.92	100	100	–
CNC(=O)c1cc(Cl)cc(C)c1NC(=O)c1cc(Cn2nc3ccc(Cl)cc3n2)nn1-c1ncccc1Cl [Example 72]	3.28	100	100	–
CNC(=O)c1cc(Cl)cc(C)c1NC(=O)c1cc(Cn2nc3cc(OC(F)(F)F)cc(Br)c3n2)nn1-c1ncccc1Cl [Example 91]	4.17	100	100	–
Cc1cc(C#N)cc(C(=O)NC(C)(C)C)c1NC(=O)c1cc(Cn2ncc(-c3ccc(Cl)cc3)n2)nn1-c1ncccc1Cl [Example 62]	4.06	100	100	–
CCNC(=O)c1cc(I)cc(C)c1NC(=O)c1cc(Cn2nc(C(F)(F)F)c(C(F)(F)F)n2)nn1-c1ncccc1Cl [Example 389]	4.23	100	100	–
Cc1cc(C#N)cc(C(=O)NC(C)C)c1NC(=O)c1cc(Cn2ncc(C(F)(C(F)(F)F)C(F)(F)F)n2)nn1-c1ncccc1Cl [Example 251]	–	100	100	chromatographic logP [1, 5]: 3.89
N#CCNC(=O)c1cc(Cl)cc(Cl)c1NC(=O)c1cc(Cn2ncc(C(F)(F)F)n2)nn1-c1ncccc1Cl [Example 154]	2.9	100	100	–
Cc1cc(I)cc(C(=O)NC(C)(C)C)c1NC(=O)c1cc(Cn2cc(C(F)(F)F)nn2)nn1-c1ncccc1Cl [Example 211]	3.72	100	100	–
Cc1cc(C#N)cc(C(=O)NC(C)(C)C)c1NC(=O)c1cc(Cn2nnc3c(Cl)c(Cl)c(Cl)cc32)nn1-c1ncccc1Cl [Example 108]	4.18	100	100	–
Cc1cc(Cl)cc(C(=O)NC(C)C)c1NC(=O)c1cc(Cn2nccn2)nn1-c1ncccc1Cl [Example 119]	2.5	100	100	–
Cc1cc(Cl)cc(C(=O)NC2CC2)c1NC(=O)c1cc(Cn2ncc(C(F)(C(F)(F)F)C(F)(F)F)n2)nn1-c1ncccc1Cl [Example 264]	4.01	100	100	–

Structure (SMILES)	chromatographic logP [1]	pest or weed control at 100 g/ha ([2]; 100 g/ha, after 7 days) [%]	pest or weed control at 100 g/ha ([3]; 100 g/ha, after 7 days) [%]	further results
CCNC(=O)c1cc(I)cc(C)c1NC(=O)c1cc(Cn2ncc(C(F)(F)F)n2)nn1-c1ncccc1Cl [Example 160]	3.5	100	100	–
CNC(=O)c1cc(Cl)cc(C)c1NC(=O)c1cc(Cn2nc(C(F)(F)F)c(C(F)(F)F)n2)nn1-c1ncccc1Cl [Example 411]	3.78	100	100	–
Cc1cc(C#N)cc(C(=O)NC(C)(C)C)c1NC(=O)c1cc(Cn2ncc(-c3ccc(Cl)cc3Cl)n2)nn1-c1ncccc1Cl [Example 63]	4.67	100	100	–
CNC(=O)c1cc(C#N)cc(C)c1NC(=O)c1cc(Cn2ncc(-c3ccc(Cl)cc3)n2)nn1-c1ncccc1Cl [Example 41]	3.34	100	100	–
Cc1cc(I)cc(C(=O)NC2CC2)c1NC(=O)c1cc(Cn2cc(C(F)(F)F)nn2)nn1-c1ncccc1Cl [Example 208]	3.15	100	100	–
O=C(NCC1CC1)c1cc(Cl)cc(Cl)c1NC(=O)c1cc(Cn2ncc(C(F)(F)F)n2)nn1-c1ncccc1Cl [Example 152]	3.48	100	100	–
CCNC(=O)c1cc(I)cc(C)c1NC(=O)c1cc(Cn2ncc(C(F)(F)C(F)(F)C(F)(F)F)n2)nn1-c1ncccc1Cl [Example 369]	–	–	–	chromatographic logP [1, 6]: 4.28; pest or weed control at 100 g/ha [2]: 100%; pest or weed control at 100 g/ha [3]: 100%
Cc1cc(Cl)cc(C(=O)NC2CC2)c1NC(=O)c1cc(Cn2ncc(C(F)(F)C(F)(F)C(F)(F)F)n2)nn1-c1ncccc1Cl [Example 370]	–	–	–	chromatographic logP [1, 6]: 3.99; pest or weed control at 100 g/ha [2]: 100%; pest or weed control at 100 g/ha [3]: 100%
Cc1cc(I)cc(C(=O)NC(C)C2CC2)c1NC(=O)c1cc(Cn2cc(C(F)(C(F)(F)F)C(F)(F)F)nn2)nn1-c1ncccc1Cl (centres unmarked) [Example 234]	–	100	100	chromatographic logP [1, 5]: 4.38
CNC(=O)c1cc(C#N)cc(C)c1NC(=O)c1cc(Cn2cc(-c3ccc(C(F)(F)F)cc3)nn2)nn1-c1ncccc1Cl [Example 3]	2.99	100	100	–
Cc1cc(C#N)cc(C(=O)NC(C)C)c1NC(=O)c1cc(Cn2cc(C(F)(F)F)nn2)nn1-c1ccccc1Cl [Example 290]	–	100	100	chromatographic logP [1, 5]: 3.17
CCNC(=O)c1cc(I)cc(C)c1NC(=O)c1cc(Cn2cc(C(F)(F)C(F)(F)F)nn2)nn1-c1ncccc1Cl [Example 311]	3.49	100	100	–
CNC(=O)c1cc(C#N)cc(C)c1NC(=O)c1cc(Cn2nnc3c(Br)cc(OC(F)(F)F)cc32)nn1-c1ncccc1Cl [Example 99]	3.37	100	100	–
Cc1cc(I)cc(C(=O)NC2CC2)c1NC(=O)c1cc(Cn2ncc(C(F)(C(F)(F)F)C(F)(F)F)n2)nn1-c1ncccc1Cl [Example 272]	4.26	100	–	pest or weed control at 20 g/ha ([3]; 20 g/ha, after 7 days): 100%
CNC(=O)c1cc(C#N)cc(C)c1NC(=O)c1cc(Cn2cc(-c3ccc(Cl)cc3)nn2)nn1-c1ncccc1Cl [Example 33]	2.75	100	100	–
CCNC(=O)c1cc(I)cc(C)c1NC(=O)c1cc(Cn2cc(C(F)(F)C(F)(F)C(F)(F)F)nn2)nn1-c1ncccc1Cl [Example 335]	–	–	–	chromatographic logP [1, 6]: 3.83; pest or weed control at 100 g/ha [2]: 100%; pest or weed control at 100 g/ha [3]: 100%
Cc1cc(I)cc(C(=O)NC(C)C)c1NC(=O)c1cc(Cn2ncc(C(F)(F)C(F)(F)C(F)(F)F)n2)nn1-c1ncccc1Cl [Example 371]	–	–	–	chromatographic logP [1, 6]: 4.46; pest or weed control at 100 g/ha [2]: 100%; pest or weed control at 100 g/ha [3]: 100%
Cc1cc(Cl)cc(C(=O)NCC2CC2)c1NC(=O)c1cc(Cn2cc(C(F)(C(F)(F)F)C(F)(F)F)nn2)nn1-c1ncccc1Cl [Example 229]	–	100	100	chromatographic logP [1, 5]: 3.91
